According to patent US8557816B2, “Aurora kinase modulators and method of use” (Amgen Inc., priority 2007, dated 2013):

How the values were obtained:
[1] = biological target: T1, AuroraA-TPX2 (Homo sapiens, UniProt O14965); assay: AuroraA-TPX2 Homogeneous Time Resolved Fluorescent (HTRF) kinase assay; assay type: biochemical; conditions: average; read-out: AurA_IC50_IP (uM Avg)
T1 construct: 20 μL of AuroraA-TPX2 KD GST for a final volume of about 41 μL; GST
T1 sequence (O14965 133-383 limits assumed): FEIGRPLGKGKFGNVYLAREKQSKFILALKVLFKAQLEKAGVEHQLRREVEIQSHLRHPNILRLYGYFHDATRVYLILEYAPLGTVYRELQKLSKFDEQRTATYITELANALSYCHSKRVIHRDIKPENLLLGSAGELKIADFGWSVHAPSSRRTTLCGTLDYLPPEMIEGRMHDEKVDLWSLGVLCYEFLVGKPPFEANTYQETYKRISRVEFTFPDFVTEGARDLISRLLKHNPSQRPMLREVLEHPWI
T1 sequence (Q9ULW0 1-43 partner limits assumed): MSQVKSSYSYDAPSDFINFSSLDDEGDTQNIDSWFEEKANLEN
Summary of the method: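 HTRF read-out (Eu 615 nm to APC 655 nm) of phosphorylated biotin-PLK, detected with 0.02 nM europium anti-phosphoPLK antibody and 0.0005 mg/mL SA-APC after overnight equilibration.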

[2] = biological target: T2, AuroraB (Homo sapiens, UniProt Q96GD4); assay: AuroraB Homogeneous Time Resolved Fluorescent (HTRF) kinase assay; assay type: biochemical; conditions: average; read-out: AurB_IC50_IP (uM Avg)
T2 construct: 20 μL of AuroraB FL H is for a final volume of 41 μL; His
Summary of the method: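 Full-length His-tagged kinase phosphorylates biotinylated Histone H3 (0.1 μM final) with ATP in pH 7.5 HEPES containing MgCl, MnCl, DTT and BSA for about 90 min. EDTA-containing detection mix with SA-APC and Eu-anti-phosphoHistone H3 then equilibrated about 60 min; HTRF read with 320 nm excitation, emissions 615/655 nm.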

T2 sequence (Q96GD4 whole entry): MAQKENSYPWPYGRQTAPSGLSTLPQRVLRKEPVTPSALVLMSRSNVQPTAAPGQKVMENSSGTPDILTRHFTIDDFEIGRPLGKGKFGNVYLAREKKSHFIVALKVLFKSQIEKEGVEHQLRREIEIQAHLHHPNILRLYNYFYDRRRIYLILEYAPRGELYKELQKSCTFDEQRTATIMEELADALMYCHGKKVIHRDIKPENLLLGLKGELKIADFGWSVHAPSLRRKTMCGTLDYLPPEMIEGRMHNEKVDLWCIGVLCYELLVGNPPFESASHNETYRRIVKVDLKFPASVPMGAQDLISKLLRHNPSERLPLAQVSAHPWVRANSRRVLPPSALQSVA

IC50 [1] [µM]	IC50 [2] [µM]	SMILES
0.302	0.039	Cc1noc(-c2cc3nccc(Oc4ccc(Nc5nnc(-c6ccccc6)c6ccccc56)cc4)c3s2)n1 [compound 288, N-(4-((2-(3-methyl-1,2,4-oxadiazol-5-yl)thieno[3,2-b]pyridin-7-yl)oxy)phenyl)-4-phenyl-1-phthalazinamine]
0.043	0.002	COc1cc2nccc(Oc3ccc(Nc4nnc(-c5cccc(C)n5)c5ccccc45)cc3)c2cn1 [compound 110, N-(4-((7-(methyloxy)-1,6-naphthyridin-4-yl)oxy)phenyl)-4-(6-methyl-2-pyridinyl)-1-phthalazinamine]
0.173	0.022	N#Cc1ccc2c(Oc3ccc(Nc4nnc(-c5ccc(Cl)cc5)c5ccccc45)cc3)ccnc2c1 [compound 242, 4-((4-((4-(4-chlorophenyl)-1-phthalazinyl)amino)phenyl)oxy)-7-quinolinecarbonitrile]
0.012	0.018	COCCOc1ccc2c(Sc3ccc(Nc4nnc(-c5ccc(Cl)cc5)c5ccccc45)cc3)ccnc2c1 [compound 431]
0.035	0.063	Clc1ccc(-c2nnc(Nc3ccc(Sc4ccnc5cc(Br)cnc45)cc3)c3ccccc23)cc1 [compound 301, N-(4-((7-bromo-1,5-naphthyridin-4-yl)thio)phenyl)-4-(4-chlorophenyl)-1-phthalazinamine]
0.019	0.01	Cc1csc(-c2nnc(Nc3ccc(Sc4ccnc5cccnc45)cc3)c3ccccc23)c1 [compound 336, N-(4-(1,5-naphthyridin-4-ylthio)phenyl)-4-(4-methylthiophen-2-yl)phthalazin-1-amine]
0.845	0.021	COc1cnc2c(Oc3ccc(Nc4nnc(-c5ccc(Cl)cc5C)c5ccccc45)cc3)ccnc2c1 [compound 233, 4-(4-chloro-2-methylphenyl)-N-(4-((7-(methyloxy)-1,5-naphthyridin-4-yl)oxy)phenyl)-1-phthalazinamine]
0.478	0.018	COc1cnc2c(Oc3ccc(Nc4nnc(-c5cn[nH]c5)c5ccccc45)cc3)ccnc2c1 [compound 212, N-(4-((7-(methyloxy)-1,5-naphthyridin-4-yl)oxy)phenyl)-4-(1H-pyrazol-4-yl)-1-phthalazinamine]
0.055	0.004	c1ccc2c(-c3ccc4c(c3)OCO4)nnc(Nc3ccc(Oc4ccnc5ccncc45)cc3)c2c1 [compound 424]
0.112	0.025	COc1cnc2c(Sc3ccc(Nc4nnc(N5CCCC5)c5ccccc45)cc3)ccnc2c1 [compound 521]
0.018	0.004	COc1cnc2c(Oc3ccc(Nc4nnc(-c5ccc(Cl)c(C#N)c5)c5ccccc45)cc3)ccnc2c1 [compound 154, 2-chloro-5-(4-((4-((7-(methyloxy)-1,5-naphthyridin-4-yl)oxy)phenyl)amino)-1-phthalazinyl)benzonitrile]
0.068	0.011	Cc1csc(-c2nnc(Nc3ccc(Oc4ccnc5ccsc45)cc3)c3ccccc23)c1 [compound 289, 4-(4-methyl-2-thienyl)-N-(4-(thieno[3,2-b]pyridin-7-yloxy)phenyl)-1-phthalazinamine]
0.074	0.001	c1ccc(-c2nnc(Nc3ccc(Sc4ccnc5[nH]ncc45)cc3)c3ccccc23)cc1 [compound 352, N-(4-(1H-pyrazolo[3,4-b]pyridin-4-ylthio)phenyl)-4-phenylphthalazin-1-amine]
0.107	0.022	COc1ccc2nccc(Sc3ccc(Nc4nnc(-c5ccc(Cl)cn5)c5ccccc45)cc3)c2n1 [compound 550]
0.035	0.063	Clc1ccc(-c2nnc(Nc3ccc(Sc4ccnc5cc(Br)cnc45)cc3)c3ccccc23)cc1 [compound 324, N-(4-((7-bromo-1,5-naphthyridin-4-yl)thio)phenyl)-4-(4-chlorophenyl)-1-phthalazinamine]
0.04	0.005	COc1cnc2c(Oc3ccc(Nc4nnc(-c5cccc(C)n5)c5ccccc45)cc3)ccnc2c1 [compound 111, N-(4-((7-(methyloxy)-1,5-naphthyridin-4-yl)oxy)phenyl)-4-(6-methyl-2-pyridinyl)-1-phthalazinamine]
0.078	0.001	c1ccc2c(-c3ccc4c(c3)OCO4)nnc(Nc3ccc(Oc4ccnc5ccsc45)cc3)c2c1 [compound 279, 4-(1,3-benzodioxol-5-yl)-N-(4-(thieno[3,2-b]pyridin-7-yloxy)phenyl)-1-phthalazinamine]
0.118	0.014	COc1cccc(-c2nnc(Nc3ccc(Sc4ccnc5ccccc45)cc3)c3ccccc23)n1 [compound 327, 4-(6-(methyloxy)-2-pyridinyl)-N-(4-(4-quinolinylthio)phenyl)-1-phthalazinamine]
0.023	0.017	COc1cnc2c(Oc3ccc(Nc4nnc(-c5ccc(C(C)(C)C)cc5)c5ccccc45)cc3)ccnc2c1 [Example 38, 4-(4-tert-butylphenyl)-N-(4-(7-methoxy-1,5-naphthyridin-4-yloxy)phenyl)phthalazin-1-amine]
0.868	0.129	c1ccc(-c2nnc(Nc3ccc(Oc4ncnc5nc[nH]c45)cc3)c3ccccc23)cc1 [compound 257, 4-phenyl-N-(4-(7H-purin-6-yloxy)phenyl)-1-phthalazinamine]
0.172	0.011	COc1ccc2nccc(Oc3ccc(Nc4nnc(-c5ccc(C)cn5)c5ccccc45)cc3)c2c1 [compound 554]
0.031	0.002	CCc1cc(-c2cc(C)cs2)nnc1Nc1ccc(Oc2ccnc3cc(OC)cnc23)cc1 [compound 210, 4-ethyl-N-(4-((7-(methyloxy)-1,5-naphthyridin-4-yl)oxy)phenyl)-6-(4-methyl-2-thienyl)-3-pyridazinamine]
0.054	0.012	COc1ccc2c(Oc3ccc(Nc4nnc(-c5ccccc5)c5ccccc45)cc3)ccnc2c1 [compound 91, N-(4-((7-(methyloxy)-4-quinolinyl)oxy)phenyl)-4-phenyl-1-phthalazinamine]
> 25	0.035	COc1cc(OC)c2c(Oc3ccc(Nc4nnc(-c5ccccc5)c5ccccc45)cn3)ncnc2c1 [compound 606]
0.032	0.008	COc1cnc2c(Oc3ccc(Nc4nnc(-c5ccc(F)c(C)c5)c5ccccc45)cc3)ccnc2c1 [compound 246, 4-(4-fluoro-3-methylphenyl)-N-(4-((7-(methyloxy)-1,5-naphthyridin-4-yl)oxy)phenyl)-1-phthalazinamine]
0.201	0.003	Cc1ccsc1-c1nnc(Nc2ccc(Oc3ccnc4cc(C#N)ccc34)cc2)c2ccccc12 [compound 184, 4-((4-((4-(3-methyl-2-thienyl)-1-phthalazinyl)amino)phenyl)oxy)-7-quinolinecarbonitrile]
0.084	0.007	Clc1ccc(-c2nnc(Nc3ccc(Sc4ccnc5ccncc45)cc3)c3ccccc23)nc1 [compound 430]
0.049	0.006	CCc1cc(-c2ccc(C)cc2)nnc1Nc1ccc(Sc2ccnc3cccnc23)cc1 [compound 358, N-(4-(1,5-naphthyridin-4-ylthio)phenyl)-4-ethyl-6-p-tolylpyridazin-3-amine]
